Molecules are shown by their SMILES.

Test [1] has as its system PSII. Also on record: species or system B6 mice. Particulars: mouse, in vivo.
Test [2] relates to C. difficile VPI 10463 spores. Put plainly: C. difficile spore challenge assay in immunized B6 mice (body weight). The format is in vivo. Particulars: 10^4 spores. Here is the method: Non-immunized age- and sex-matched naïve B6 mice were Cefoperazone-treated and then treated with vehicle only (a) or were infected with 10^4 live C. difficile spores (b). Some mice were administered PSII alone followed by a PSII booster one week later (c), or administered vehicle only followed by the PSII booster one week later (d), or administered α-GC alone followed by the PSII booster (e), or administered a PSII and α-GC combination followed by the PSII booster (f), or administered α-GC alone followed by vehicle (g). Animals were then treated with the antibiotic Cefoperazone prior to being infected with 10^4 live C. difficile spores. Graphs show the percent of original weight, which was obtained daily and for the duration indicated. Five mice were used for each group except for the naïve-infected and the PSII/α-GC groups (n=10). […] In the uninfected control group (a), zero counts were detected (limit of detection in assay=10^2).
Immunizations: Mice were immunized s.c. in both flanks with a total of 15 μg or 50 μg PSII or PSII plus 4 μg α-GC, in a 200 μl total volume of sterile low-endotoxin PBS. The amount of α-GC administered has been determined in previous studies to exert a strong CD1d- and NKT-dependent effect on Ab responses. […]
Animal weight was then measured daily. […]

As to `CCCCCCCCCCCCCCCCCCCCCCCCCC(=O)N[C@@H](CO[C@H]1O[C@H](CO)[C@H](O)[C@H](O)[C@H]1O)[C@H](O)[C@H](O)CCCCCCCCCCCCCC` [α-GC, (2S,3S,4R)-1-O-(α-D-Galactosyl)-N-hexacosanoyl-2-amino-1,3,4-octadecanetriol], the Anti-PSII titers result in test [1] is “could not be detected”. In addition, the “Body weight after C. difficile challenge” value in test [2] (α-GC alone, w/o a PSII booster (FIG. 6g)) was “did not protect against weight loss”; in test [2] (α-GC followed one week later with PSII (FIG. 6e)), “no weight loss was observed”.

The values are drawn from patent US10933126B2, “Clostridium difficile immunogenic compositions and methods of use” (The Board of Regents of the University of Oklahoma, priority 2018, dated 2021).
